# How the values were obtained:
# [1] = test system: Receptor-type tyrosine-protein kinase FLT3 (Homo sapiens), P36888 [D835V]; details: Compound concentration 1000.0 nM
# [2] = target: Serine/threonine-protein kinase WNK4 (Homo sapiens) (UniProt Q96J92); details: Compound concentration 1000.0 nM
# [3] = target: Serine/threonine-protein kinase WNK1 (Homo sapiens) (UniProt Q9H4A3); details: Compound concentration 1000.0 nM
# [4] = target: Insulin receptor (Homo sapiens) (UniProt P06213); details: Compound concentration 1000.0 nM
# [5] = target: SRSF protein kinase 2 (Homo sapiens) (UniProt P78362); details: Compound concentration 1000.0 nM
# [6] = target: Serine/threonine-protein kinase 33 (Homo sapiens) (UniProt Q9BYT3); details: Compound concentration 1000.0 nM
# [7] = target: Dual specificity testis-specific protein kinase 1 (Homo sapiens) (UniProt Q15569); details: Compound concentration 1000.0 nM
# [8] = target: Mitogen-activated protein kinase kinase kinase kinase 5 (Homo sapiens) (UniProt Q9Y4K4); details: Compound concentration 1000.0 nM
# [9] = target: Vascular endothelial growth factor receptor 1 (Homo sapiens) (UniProt P17948); details: Compound concentration 1000.0 nM
# [10] = target: GABA-A receptor; anion channel (Rattus norvegicus) (UniProt O09028+P15431+P18506+P18508+P19969+P20236+P23574+P23576+P28471+P28473+P30191+P62813+P63079+P63138+Q91ZM7+Q9ES14); details: Compound concentration 10.0 uM
# [11] = target: Cyclin-dependent kinase 4 (Homo sapiens) (UniProt P11802); details: Compound concentration 1000.0 nM
# [12] = target: Mitogen-activated protein kinase 6 (Homo sapiens) (UniProt Q16659); details: Compound concentration 1000.0 nM
# [13] = test system: Tyrosine-protein kinase ABL1 (Homo sapiens), P00519 [F317I]; details: Compound concentration 1000.0 nM
# [14] = target: ALK tyrosine kinase receptor (Homo sapiens) (UniProt Q9UM73); details: Compound concentration 1000.0 nM
# [15] = test system: Receptor-type tyrosine-protein kinase FLT3 (Homo sapiens), P36888 [K663Q]; details: Compound concentration 1000.0 nM
# [16] = target: Dual specificity protein kinase CLK4 (Homo sapiens) (UniProt Q9HAZ1); details: Compound concentration 1000.0 nM
# [17] = target: Serine/threonine-protein kinase PAK 2 (Homo sapiens) (UniProt Q13177); details: Compound concentration 1000.0 nM
# [18] = target: Activin receptor type-2A (Homo sapiens) (UniProt P27037); details: Compound concentration 1000.0 nM
# [19] = target: NUAK family SNF1-like kinase 1 (Homo sapiens) (UniProt O60285); details: Compound concentration 1000.0 nM
# [20] = target: TGF-beta receptor type-2 (Homo sapiens) (UniProt P37173); details: Compound concentration 1000.0 nM
# [21] = target: Serine/threonine-protein kinase RIO3 (Homo sapiens) (UniProt O14730); details: Compound concentration 1000.0 nM
# [22] = target: Fibroblast growth factor receptor 3 (Homo sapiens) (UniProt P22607); details: Compound concentration 1000.0 nM
# [23] = target: Serine/threonine-protein kinase D3 (Homo sapiens) (UniProt O94806); details: Compound concentration 1000.0 nM
# [24] = target: Death-associated protein kinase 1 (Homo sapiens) (UniProt P53355); details: Compound concentration 1000.0 nM
# [25] = target: Interleukin-1 receptor-associated kinase 1 (Homo sapiens) (UniProt P51617); details: Compound concentration 1000.0 nM
# [26] = target: Serine/threonine-protein kinase 38-like (Homo sapiens) (UniProt Q9Y2H1); details: Compound concentration 1000.0 nM
# [27] = target: Serine/threonine-protein kinase 32C (Homo sapiens) (UniProt Q86UX6); details: Compound concentration 1000.0 nM
# [28] = target: Tyrosine-protein kinase ABL1 (Homo sapiens) (UniProt P00519); details: Compound concentration 1000.0 nM
# [29] = target: STE20-like serine/threonine-protein kinase (Homo sapiens) (UniProt Q9H2G2); details: Compound concentration 1000.0 nM
# [30] = target: Casein kinase I isoform epsilon (Homo sapiens) (UniProt P49674); details: Compound concentration 1000.0 nM
# [31] = test system: Phosphatidylinositol 4,5-bisphosphate 3-kinase catalytic subunit alpha isoform (Homo sapiens), P42336 [M1043I]; details: Compound concentration 1000.0 nM
# [32] = target: Serine/threonine-protein kinase RIO1 (Homo sapiens) (UniProt Q9BRS2); details: Compound concentration 1000.0 nM
# [33] = target: 5-hydroxytryptamine receptor 6 (Homo sapiens) (UniProt P50406); details: Compound concentration 10.0 uM
# [34] = target: Mitogen-activated protein kinase 11 (Homo sapiens) (UniProt Q15759); details: Compound concentration 1000.0 nM
# [35] = target: Mitogen-activated protein kinase 3 (Homo sapiens) (UniProt P27361); details: Compound concentration 1000.0 nM
# [36] = target: Non-receptor tyrosine-protein kinase TNK1 (Homo sapiens) (UniProt Q13470); details: Compound concentration 1000.0 nM
# [37] = target: AP2-associated protein kinase 1 (Homo sapiens) (UniProt Q2M2I8); details: Compound concentration 1000.0 nM
# [38] = target: Myosin light chain kinase (Homo sapiens) (UniProt Q32MK0); details: Compound concentration 1000.0 nM
# [39] = target: Calcium/calmodulin-dependent protein kinase type II subunit gamma (Homo sapiens) (UniProt Q13555); details: Compound concentration 1000.0 nM
# [40] = target: Serine/threonine-protein kinase Nek4 (Homo sapiens) (UniProt P51957); details: Compound concentration 1000.0 nM
# [41] = target: Dual specificity protein kinase TTK (Homo sapiens) (UniProt P33981); details: Compound concentration 1000.0 nM
# [42] = target: Death-associated protein kinase 2 (Homo sapiens) (UniProt Q9UIK4); details: Compound concentration 1000.0 nM
# [43] = target: Mitogen-activated protein kinase kinase kinase 11 (Homo sapiens) (UniProt Q16584); details: Compound concentration 1000.0 nM
# [44] = target: Wee1-like protein kinase 2 (Homo sapiens) (UniProt P0C1S8); details: Compound concentration 1000.0 nM
# Chain of Serine/threonine-protein kinase Nek4 (Homo sapiens) (P51957 whole entry, looked up): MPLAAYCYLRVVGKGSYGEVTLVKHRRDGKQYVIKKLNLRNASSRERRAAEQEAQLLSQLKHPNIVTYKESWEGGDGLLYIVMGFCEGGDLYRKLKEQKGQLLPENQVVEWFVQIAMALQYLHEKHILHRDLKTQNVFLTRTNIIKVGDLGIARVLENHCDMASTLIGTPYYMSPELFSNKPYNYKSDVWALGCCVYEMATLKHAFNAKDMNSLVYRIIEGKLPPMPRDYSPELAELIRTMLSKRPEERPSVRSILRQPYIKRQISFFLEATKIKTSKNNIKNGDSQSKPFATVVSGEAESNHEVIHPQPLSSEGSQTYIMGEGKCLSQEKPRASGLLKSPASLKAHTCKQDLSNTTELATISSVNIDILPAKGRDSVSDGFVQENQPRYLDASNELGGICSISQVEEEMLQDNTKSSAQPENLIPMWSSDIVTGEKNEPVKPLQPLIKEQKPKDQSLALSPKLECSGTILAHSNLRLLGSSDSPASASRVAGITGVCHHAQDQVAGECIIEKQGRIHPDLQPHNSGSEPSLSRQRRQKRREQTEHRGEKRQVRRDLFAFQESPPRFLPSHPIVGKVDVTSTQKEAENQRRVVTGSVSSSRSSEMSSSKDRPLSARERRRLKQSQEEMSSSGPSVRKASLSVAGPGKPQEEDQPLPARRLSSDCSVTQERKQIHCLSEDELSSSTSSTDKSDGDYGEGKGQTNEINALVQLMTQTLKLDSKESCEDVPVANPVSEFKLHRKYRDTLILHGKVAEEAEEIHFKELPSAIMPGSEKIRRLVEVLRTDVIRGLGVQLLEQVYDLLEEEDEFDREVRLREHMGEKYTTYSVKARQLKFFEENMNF
# Chain of Fibroblast growth factor receptor 3 (Homo sapiens) (P22607 23-806 limits assumed): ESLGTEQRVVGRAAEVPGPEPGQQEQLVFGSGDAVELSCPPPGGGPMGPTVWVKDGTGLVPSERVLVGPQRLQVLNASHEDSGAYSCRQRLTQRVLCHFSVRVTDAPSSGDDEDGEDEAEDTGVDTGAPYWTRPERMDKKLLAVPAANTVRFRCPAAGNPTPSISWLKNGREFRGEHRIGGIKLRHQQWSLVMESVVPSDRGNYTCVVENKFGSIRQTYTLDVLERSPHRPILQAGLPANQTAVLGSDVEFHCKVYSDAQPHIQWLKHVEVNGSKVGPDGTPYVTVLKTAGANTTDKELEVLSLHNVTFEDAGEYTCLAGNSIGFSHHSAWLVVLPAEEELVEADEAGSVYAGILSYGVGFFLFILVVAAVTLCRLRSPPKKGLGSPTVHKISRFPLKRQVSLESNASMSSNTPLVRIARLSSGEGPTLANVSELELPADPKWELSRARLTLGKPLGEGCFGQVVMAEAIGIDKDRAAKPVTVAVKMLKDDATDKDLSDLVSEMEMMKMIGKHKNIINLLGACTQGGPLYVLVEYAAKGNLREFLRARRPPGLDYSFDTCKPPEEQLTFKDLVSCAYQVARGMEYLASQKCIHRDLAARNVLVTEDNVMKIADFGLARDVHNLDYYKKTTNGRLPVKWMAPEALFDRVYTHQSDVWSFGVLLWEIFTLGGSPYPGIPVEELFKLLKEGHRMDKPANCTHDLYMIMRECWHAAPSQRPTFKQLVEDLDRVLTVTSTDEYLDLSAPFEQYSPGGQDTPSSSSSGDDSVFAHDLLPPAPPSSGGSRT
# Chain of NUAK family SNF1-like kinase 1 (Homo sapiens) (O60285 whole entry): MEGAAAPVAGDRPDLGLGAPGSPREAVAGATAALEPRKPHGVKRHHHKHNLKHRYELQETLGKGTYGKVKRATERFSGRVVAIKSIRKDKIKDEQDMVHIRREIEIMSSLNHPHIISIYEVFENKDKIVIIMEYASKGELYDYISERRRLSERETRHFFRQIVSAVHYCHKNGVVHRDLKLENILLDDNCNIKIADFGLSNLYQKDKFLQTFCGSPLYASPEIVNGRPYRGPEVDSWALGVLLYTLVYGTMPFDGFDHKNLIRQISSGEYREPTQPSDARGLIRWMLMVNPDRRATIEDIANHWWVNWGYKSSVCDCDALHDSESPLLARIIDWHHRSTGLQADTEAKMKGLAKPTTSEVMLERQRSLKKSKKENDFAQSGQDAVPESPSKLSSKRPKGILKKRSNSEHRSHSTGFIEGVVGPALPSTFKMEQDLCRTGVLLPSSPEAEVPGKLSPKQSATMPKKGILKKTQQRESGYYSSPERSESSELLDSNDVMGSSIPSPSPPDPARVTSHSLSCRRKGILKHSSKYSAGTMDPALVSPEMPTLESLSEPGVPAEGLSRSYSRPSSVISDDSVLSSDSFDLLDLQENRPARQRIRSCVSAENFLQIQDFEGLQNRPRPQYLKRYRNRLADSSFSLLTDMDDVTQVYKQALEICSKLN
# Chain of Serine/threonine-protein kinase D3 (Homo sapiens) (O94806 whole entry): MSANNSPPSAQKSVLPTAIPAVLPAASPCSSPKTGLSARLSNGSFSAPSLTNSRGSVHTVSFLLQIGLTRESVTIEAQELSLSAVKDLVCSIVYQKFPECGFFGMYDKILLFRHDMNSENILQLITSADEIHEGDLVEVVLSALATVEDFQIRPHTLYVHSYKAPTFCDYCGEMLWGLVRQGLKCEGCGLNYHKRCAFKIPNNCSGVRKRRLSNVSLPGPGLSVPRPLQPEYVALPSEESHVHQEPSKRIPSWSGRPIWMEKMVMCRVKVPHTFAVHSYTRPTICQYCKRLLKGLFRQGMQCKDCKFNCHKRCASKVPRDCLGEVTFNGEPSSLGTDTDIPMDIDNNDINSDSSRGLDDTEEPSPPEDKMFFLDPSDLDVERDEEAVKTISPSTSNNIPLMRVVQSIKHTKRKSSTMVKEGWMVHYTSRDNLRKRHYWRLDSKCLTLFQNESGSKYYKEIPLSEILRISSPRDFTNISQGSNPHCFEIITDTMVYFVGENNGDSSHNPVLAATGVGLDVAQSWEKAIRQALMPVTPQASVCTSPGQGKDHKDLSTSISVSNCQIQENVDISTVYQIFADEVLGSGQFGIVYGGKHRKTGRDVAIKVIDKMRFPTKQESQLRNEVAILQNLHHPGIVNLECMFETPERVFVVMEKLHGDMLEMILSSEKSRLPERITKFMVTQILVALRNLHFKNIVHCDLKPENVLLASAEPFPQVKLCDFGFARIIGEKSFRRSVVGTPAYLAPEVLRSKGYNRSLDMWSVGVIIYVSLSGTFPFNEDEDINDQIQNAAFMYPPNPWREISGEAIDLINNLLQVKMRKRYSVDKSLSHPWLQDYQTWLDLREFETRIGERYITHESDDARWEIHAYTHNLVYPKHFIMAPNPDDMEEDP
# Chain of Dual specificity protein kinase CLK4 (Homo sapiens) (Q9HAZ1 whole entry, looked up): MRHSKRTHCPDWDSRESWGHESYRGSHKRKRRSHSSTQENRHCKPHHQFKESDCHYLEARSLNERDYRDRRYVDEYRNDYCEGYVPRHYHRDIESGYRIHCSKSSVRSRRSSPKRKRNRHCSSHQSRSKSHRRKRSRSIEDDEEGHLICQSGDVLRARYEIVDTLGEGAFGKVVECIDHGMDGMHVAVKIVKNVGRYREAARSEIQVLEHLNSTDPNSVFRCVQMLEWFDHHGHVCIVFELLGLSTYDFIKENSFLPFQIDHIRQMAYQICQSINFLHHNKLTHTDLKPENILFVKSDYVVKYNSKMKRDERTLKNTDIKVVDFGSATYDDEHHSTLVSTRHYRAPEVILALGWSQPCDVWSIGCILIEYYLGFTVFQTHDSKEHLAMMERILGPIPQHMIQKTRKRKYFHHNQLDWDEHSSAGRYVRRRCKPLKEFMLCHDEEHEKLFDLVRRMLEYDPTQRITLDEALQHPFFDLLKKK
# Chain of TGF-beta receptor type-2 (Homo sapiens) (P37173 whole entry): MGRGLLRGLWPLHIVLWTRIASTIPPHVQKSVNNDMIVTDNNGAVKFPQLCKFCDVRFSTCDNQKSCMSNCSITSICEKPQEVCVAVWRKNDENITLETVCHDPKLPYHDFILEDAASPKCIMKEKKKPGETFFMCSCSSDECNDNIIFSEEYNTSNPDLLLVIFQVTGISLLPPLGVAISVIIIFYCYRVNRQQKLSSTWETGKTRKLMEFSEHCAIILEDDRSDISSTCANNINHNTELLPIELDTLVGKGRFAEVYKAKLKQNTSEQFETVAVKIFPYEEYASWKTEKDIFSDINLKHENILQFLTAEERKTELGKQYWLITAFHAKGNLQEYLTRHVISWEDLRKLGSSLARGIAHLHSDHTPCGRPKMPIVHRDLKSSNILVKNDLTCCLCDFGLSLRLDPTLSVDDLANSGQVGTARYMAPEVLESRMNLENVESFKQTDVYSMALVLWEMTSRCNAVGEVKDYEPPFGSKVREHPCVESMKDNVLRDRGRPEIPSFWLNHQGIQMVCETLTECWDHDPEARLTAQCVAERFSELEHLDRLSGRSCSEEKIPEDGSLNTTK
# Chain of Serine/threonine-protein kinase 33 (Homo sapiens) (Q9BYT3 whole entry, looked up): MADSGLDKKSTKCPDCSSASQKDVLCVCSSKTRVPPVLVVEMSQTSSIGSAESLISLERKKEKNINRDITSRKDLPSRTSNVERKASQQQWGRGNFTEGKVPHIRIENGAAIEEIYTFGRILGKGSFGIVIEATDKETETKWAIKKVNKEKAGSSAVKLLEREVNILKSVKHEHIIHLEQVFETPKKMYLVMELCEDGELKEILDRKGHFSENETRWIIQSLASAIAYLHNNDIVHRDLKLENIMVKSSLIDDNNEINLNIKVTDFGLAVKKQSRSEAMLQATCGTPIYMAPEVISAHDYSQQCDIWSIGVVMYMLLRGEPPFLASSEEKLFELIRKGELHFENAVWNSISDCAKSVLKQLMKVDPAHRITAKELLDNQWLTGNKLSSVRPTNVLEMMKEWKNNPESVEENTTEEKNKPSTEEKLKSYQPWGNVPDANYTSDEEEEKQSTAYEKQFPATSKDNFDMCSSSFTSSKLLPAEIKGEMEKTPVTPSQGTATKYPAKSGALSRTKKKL
# Chain of Cyclin-dependent kinase 4 (Homo sapiens) (P11802 whole entry): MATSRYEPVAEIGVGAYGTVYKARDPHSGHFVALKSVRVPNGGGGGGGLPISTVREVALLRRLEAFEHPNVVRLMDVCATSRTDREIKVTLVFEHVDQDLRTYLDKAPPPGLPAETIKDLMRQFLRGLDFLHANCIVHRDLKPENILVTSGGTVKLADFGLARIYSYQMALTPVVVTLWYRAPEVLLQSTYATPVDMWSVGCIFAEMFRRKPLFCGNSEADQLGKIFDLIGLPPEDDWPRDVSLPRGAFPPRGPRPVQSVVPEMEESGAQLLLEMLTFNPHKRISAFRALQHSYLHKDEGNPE
compound,measurement,setting,value
Cc1c(NC(=O)c2cc(C(N)=O)nc3cc(F)ccc23)c(C(F)(F)F)nn1Cc1ccc(C(C)(C)C)cc1 [BAY-588],residual activity,[1],100%
same,residual activity,[2],100%
same,residual activity,[3],100%
same,residual activity,[4],100%
same,residual activity,[5],97%
same,residual activity,[6],96%
same,residual activity,[7],100%
same,residual activity,[8],92%
same,residual activity,[9],100%
same,inhibition,[10],7.34%
same,residual activity,[11],100%
same,residual activity,[12],79%
same,residual activity,[13],100%
same,residual activity,[14],96%
same,residual activity,[15],100%
same,residual activity,[16],100%
same,residual activity,[17],85%
same,residual activity,[18],100%
same,residual activity,[19],94%
same,residual activity,[20],100%
same,residual activity,[21],97%
same,residual activity,[22],92%
same,residual activity,[23],100%
same,residual activity,[24],100%
same,residual activity,[25],100%
same,residual activity,[26],89%
same,residual activity,[27],100%
same,residual activity,[28],96%
same,residual activity,[29],100%
same,residual activity,[30],91%
same,residual activity,[31],80%
same,residual activity,[32],93%
same,inhibition,[33],-0.431%
same,residual activity,[34],91%
same,residual activity,[35],100%
same,residual activity,[36],100%
same,residual activity,[37],83%
same,residual activity,[38],100%
same,residual activity,[39],82%
same,residual activity,[40],100%
same,residual activity,[41],79%
same,residual activity,[42],76%
same,residual activity,[43],100%
same,residual activity,[44],96%
Cc1c(NC(=O)c2cc(C(N)=O)nc3cc(F)ccc23)c(C(F)(F)F)nn1Cc1ccc(C#N)cc1 [BAY-876],residual activity,[1],100%
same,residual activity,[2],-0%
same,residual activity,[3],80%
same,residual activity,[4],100%
same,residual activity,[5],100%
same,residual activity,[6],80%
same,residual activity,[7],93%
same,residual activity,[8],74%
same,residual activity,[9],98%
same,inhibition,[10],5.66%
same,residual activity,[11],100%
same,residual activity,[12],88%
same,residual activity,[13],96%
same,residual activity,[14],87%
same,residual activity,[15],93%
same,residual activity,[16],87%
same,residual activity,[17],88%
same,residual activity,[18],97%
same,residual activity,[19],100%
same,residual activity,[20],100%
same,residual activity,[21],75%
same,residual activity,[22],99%
same,residual activity,[23],74%
same,residual activity,[24],86%
same,residual activity,[25],70%
same,residual activity,[26],100%
same,residual activity,[27],69%
same,residual activity,[28],84%
same,residual activity,[29],100%
same,residual activity,[30],100%
same,residual activity,[31],91%
same,residual activity,[32],93%
same,inhibition,[33],-0.383%
same,residual activity,[34],88%
same,residual activity,[35],85%
same,residual activity,[36],81%
same,residual activity,[37],79%
same,residual activity,[38],79%
same,residual activity,[39],86%
same,residual activity,[40],92%
same,residual activity,[41],95%
same,residual activity,[42],99%
same,residual activity,[43],100%
same,residual activity,[44],100%
